This is an account of results in patent US6376472B1, “Compounds having antihypertensive, cardioprotective, anti-ischemic and antilipolytic properties” (Aventis Pharmaceuticals, Inc., priority 1996, dated 2002).

Data set [1] concerns A2 receptor. Conditions: relative to NECA; cited from earlier work.
Data set [2] relates to A1 and A2 receptors. Conditions: selectivity of receptor affinity; cited from earlier work.
Data set [3] has as its system lipolysis. The following applies: selective agonists of the A2 receptor subtype; cited from earlier work.

The term melting point denotes the temperature of the solid-liquid transition.

For the compound `Nc1nc(Nc2ccccc2)nc2c1ncn2[C@@H]1O[C@H](CO)[C@@H](O)[C@H]1O` [CV-1808], the “fold less potent than NECA in affinity for the A2 receptor” value in data set [1] is 10 fold. Moreover, in data set [2], the A2/A1 ratio is 0.19.

Turning to `OC[C@H]1O[C@@H](n2cnc3c(NC4CCCC4)ncnc32)[C@H](O)[C@@H]1O` [CPA, Cyclopentyladenosine], in data set [2], the A2/A1 ratio is 780.

Regarding `CCNC(=O)[C@H]1O[C@@H](n2cnc3c(N)nc(NCCc4ccc(CCC(=O)O)cc4)nc32)[C@H](O)[C@@H]1O` [CGS 21680], in data set [3], the antilipolytic activity entry is on record as “do not exhibit antilipolytic activity”.

On to `COC[C@H]1C[C@@H](n2cnc3c(N[C@H]4CCN(c5ccc(C(F)(F)F)cn5)C4)ncnc32)[C@@H](O)[C@H]1O`, for which the melting point is 166 to 168 °C.
